Data on 64 compounds can be found in ChEMBL document CHEMBL1154297, “Inhibitor profiling of the Pseudomonas aeruginosa virulence factor LasB using N-alpha mercaptoamide template-based inhibitors” (Bioorg Med Chem Lett, 2009).

The structures appear in SMILES notation. pKi: −log10 of the molar value.

Elastase, sequence (P14756 whole entry): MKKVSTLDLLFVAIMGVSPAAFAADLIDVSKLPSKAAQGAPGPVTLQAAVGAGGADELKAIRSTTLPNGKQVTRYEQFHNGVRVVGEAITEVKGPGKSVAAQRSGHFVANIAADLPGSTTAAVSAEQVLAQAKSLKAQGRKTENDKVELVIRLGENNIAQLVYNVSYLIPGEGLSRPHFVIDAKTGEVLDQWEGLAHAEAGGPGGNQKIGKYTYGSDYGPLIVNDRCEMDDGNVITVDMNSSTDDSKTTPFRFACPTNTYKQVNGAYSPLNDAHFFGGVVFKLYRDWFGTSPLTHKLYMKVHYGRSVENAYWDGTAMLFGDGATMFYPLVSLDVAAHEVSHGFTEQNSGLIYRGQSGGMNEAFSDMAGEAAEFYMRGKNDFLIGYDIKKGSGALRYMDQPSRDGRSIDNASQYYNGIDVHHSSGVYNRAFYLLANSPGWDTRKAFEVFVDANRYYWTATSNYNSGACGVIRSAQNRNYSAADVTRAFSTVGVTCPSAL

One experiment concerns the target Elastase (Pseudomonas aeruginosa (strain ATCC 15692 / PAO1 / 1C / PRS 101 / LMG12228), UniProt P14756). In words: Inhibition of Pseudomonas aeruginosa LasB by fluorimetric assay in buffer of pH 7.2.
Settings: not given; call rule not given here
`CC(C)C[C@H](NC(=O)[C@H](CCCNC(=N)N)NC(=O)CS)C(N)=O`: the Ki entry is “Not Active”.
The same measure, in the same setting: the value for `NCCCC[C@H](NC(=O)[C@H](CO)NC(=O)CS)C(N)=O` was “Not Active”.
With `CC(C)[C@H](NC(=O)CS)C(=O)N[C@@H](Cc1c[nH]c2ccccc12)C(N)=O`, the Ki result is given as “Not Active”.
The same measure, in the same setting: to `NC(=O)[C@H](Cc1ccccc1)NC(=O)[C@@H]1CCCN1C(=O)CS` belongs “Not Active”.
Still for that read-out and setting: to `NC(=O)[C@H](CC(=O)O)NC(=O)[C@H](CCC(=O)O)NC(=O)CS` belongs “Not Active”.
Regarding `NC(=O)[C@H](CC(=O)O)NC(=O)CNC(=O)CS`, the Ki result is given as “Not Active”.
On to `NC(=O)[C@H](Cc1ccccc1)NC(=O)[C@H](CC(=O)O)NC(=O)CS`, for which the Ki result is reported as “Not Active”.
As for `N=C(N)NCCC[C@H](NC(=O)[C@H](CCC(=O)O)NC(=O)CS)C(N)=O`, the Ki entry is “Not Active”.
The same measure, in the same setting: to `CC(C)C[C@H](NC(=O)[C@@H](NC(=O)CS)[C@@H](C)O)C(N)=O` belongs “Not Active”; to `N=C(N)NCCC[C@H](NC(=O)[C@H](Cc1ccccc1)NC(=O)CS)C(N)=O`, “Not Active”.
For the compound `CC(C)C[C@H](NC(=O)[C@H](CS)NC(=O)CS)C(N)=O`, the Ki entry was “Not Active”.
The same measure, in the same setting: the value for `NC(=O)[C@H](CC(=O)O)NC(=O)[C@@H]1CCCN1C(=O)CS` was “Not Active”; that for `NC(=O)[C@H](Cc1c[nH]c2ccccc12)NC(=O)[C@H](CO)NC(=O)CS` was “Not Active”; that for `NC(=O)CC[C@H](NC(=O)CS)C(=O)N[C@@H](Cc1ccccc1)C(N)=O` was “Not Active”.
On the same count and under the same terms, the value for `CC(C)[C@H](NC(=O)CS)C(=O)N[C@@H](CC(=O)O)C(N)=O` was “Not Active”.

Staying with this experiment, now noted: read-out: Ki.
`CSCC[C@H](NC(=O)CS)C(=O)N[C@@H](Cc1ccccc1)C(N)=O`: the negative-log Ki (pKi) (as a rule, the Ki on a negative log10 scale, so that one unit is a factor of ten) was 3.06.
The same measure, in the same setting: to `NCCCC[C@H](NC(=O)[C@H](CCC(=O)O)NC(=O)CS)C(N)=O` belongs 3.26; to `CC(C)[C@H](NC(=O)[C@H](Cc1ccc(O)cc1)NC(=O)CS)C(N)=O`, 6.11; to `CC(C)[C@H](NC(=O)[C@H](Cc1c[nH]c2ccccc12)NC(=O)CS)C(N)=O`, 5.39.
On the same count and under the same terms, the value for `CSCC[C@H](NC(=O)CS)C(=O)N[C@@H](CCCCN)C(N)=O` was 5.41; that for `CC(C)C[C@H](NC(=O)CS)C(=O)N[C@@H](CCCNC(=N)N)C(N)=O` was 3.21; that for `N=C(N)NCCC[C@H](NC(=O)[C@H](CO)NC(=O)CS)C(N)=O` was 3.35.
On to `NC(=O)[C@H](Cc1c[nH]c2ccccc12)NC(=O)CNC(=O)CS`, for which the pKi was 3.91.
The same measure, in the same setting: to `NC(=O)[C@H](CCCN=C(N)N)NC(=O)[C@H](CC(=O)O)NC(=O)CS` belongs 3.26; to `CC(C)[C@H](NC(=O)[C@@H](NC(=O)CS)[C@@H](C)O)C(N)=O`, 3.42; to `NC(=O)CC[C@H](NC(=O)CS)C(=O)N[C@@H](CCCN=C(N)N)C(N)=O`, 3.66.
On the same count and under the same terms, to `NC(=O)[C@H](Cc1c[nH]c2ccccc12)NC(=O)[C@H](Cc1ccc(O)cc1)NC(=O)CS` belongs 4.85; to `CC(C)C[C@H](NC(=O)[C@@H]1CCCN1C(=O)CS)C(N)=O`, 3.61.
Still for that read-out and setting: the value for `NC(=O)[C@H](Cc1ccccc1)NC(=O)[C@H](Cc1ccc(O)cc1)NC(=O)CS` was 5.19.
With `C[C@@H](O)[C@H](NC(=O)CS)C(=O)N[C@@H](CCCN=C(N)N)C(N)=O`, the pKi is 3.21.
The same measure, in the same setting: to `NCCCC[C@H](NC(=O)[C@H](Cc1c[nH]c2ccccc12)NC(=O)CS)C(N)=O` belongs 5.00; to `CC(C)[C@H](NC(=O)[C@H](CC(N)=O)NC(=O)CS)C(N)=O`, 3.74.
Same read-out and setting: to `CC(C)C[C@H](NC(=O)[C@H](Cc1ccccc1)NC(=O)CS)C(N)=O` belongs 3.19; to `CC[C@@H](C)[C@H](NC(=O)CS)C(=O)N[C@@H](CC(C)C)C(N)=O`, 5.89.
The same measure, in the same setting: to `NC(=O)[C@H](Cc1c[nH]c2ccccc12)NC(=O)[C@H](Cc1cnc[nH]1)NC(=O)CS` belongs 4.74; to `NC(=O)[C@H](CC(=O)O)NC(=O)[C@H](Cc1ccc(O)cc1)NC(=O)CS`, 5.26; to `CSCC[C@H](NC(=O)CS)C(=O)N[C@@H](CCCNC(=N)N)C(N)=O`, 5.18.
As for `NCCCC[C@H](NC(=O)CS)C(=O)N[C@@H](CC(=O)O)C(N)=O`, the pKi was 3.01.
Still for that read-out and setting: to `CC(C)[C@H](NC(=O)[C@H](CO)NC(=O)CS)C(N)=O` belongs 3.64; to `NCCCC[C@H](NC(=O)[C@H](CC(=O)O)NC(=O)CS)C(N)=O`, 3.31; to `C[C@H](NC(=O)CS)C(=O)N[C@@H](Cc1c[nH]c2ccccc12)C(N)=O`, 3.40.
Still for that read-out and setting: the value for `CC(C)C[C@H](NC(=O)CS)C(=O)N[C@@H](CC(=O)O)C(N)=O` was 3.23; that for `C[C@@H](O)[C@H](NC(=O)CS)C(=O)N[C@@H](Cc1c[nH]c2ccccc12)C(N)=O` was 4.19; that for `NC(=O)[C@H](Cc1ccccc1)NC(=O)[C@H](Cc1ccccc1)NC(=O)CS` was 3.84.
In the case of `N=C(N)NCCC[C@H](NC(=O)[C@@H]1CCCN1C(=O)CS)C(N)=O`, the negative logarithm of the Ki (pKi) was 4.25.
Same read-out and setting: the value for `CC(C)[C@H](NC(=O)[C@H](Cc1c[nH]cn1)NC(=O)CS)C(N)=O` was 4.33; that for `NC(=O)[C@H](Cc1ccccc1)NC(=O)[C@H](Cc1c[nH]c2ccccc12)NC(=O)CS` was 5.96; that for `C[C@@H](O)[C@H](NC(=O)CS)C(=O)N[C@@H](Cc1ccccc1)C(N)=O` was 3.65.
The same measure, in the same setting: the value for `NC(=O)[C@H](Cc1c[nH]c2ccccc12)NC(=O)[C@H](CCC(=O)O)NC(=O)CS` was 3.15.
Same read-out and setting: the value for `CSCC[C@H](NC(=O)CS)C(=O)N[C@@H](CC(=O)O)C(N)=O` was 5.15.
For the compound `CC(C)[C@H](NC(=O)CS)C(=O)N[C@@H](Cc1ccccc1)C(N)=O`, the pKi is 4.14.
Same read-out and setting: the value for `NC(=O)[C@H](CCCN=C(N)N)NC(=O)[C@H](Cc1c[nH]c2ccccc12)NC(=O)CS` was 4.60; that for `CC(C)C[C@H](NC(=O)CS)C(=O)N[C@@H](Cc1c[nH]c2ccccc12)C(N)=O` was 3.52.
The same measure, in the same setting: to `CC(C)[C@H](NC(=O)[C@H](CS)NC(=O)CS)C(N)=O` belongs 3.79.
On the same count and under the same terms, the value for `CC(C)C[C@H](NC(=O)[C@H](CC(C)C)NC(=O)CS)C(N)=O` was 4.28; that for `NC(=O)[C@H](Cc1ccccc1)NC(=O)CNC(=O)CS` was 4.29; that for `C[C@H](NC(=O)CS)C(=O)N[C@@H](CC(=O)O)C(N)=O` was 3.50.
In the case of `NCCCC[C@H](NC(=O)[C@H](Cc1c[nH]cn1)NC(=O)CS)C(N)=O`, the negative-log Ki (pKi) is 3.48.
`NC(=O)[C@H](Cc1c[nH]c2ccccc12)NC(=O)[C@H](Cc1c[nH]c2ccccc12)NC(=O)CS`: the pKi is 4.31.
On the same count and under the same terms, the value for `CC(C)C[C@H](NC(=O)[C@H](CC(N)=O)NC(=O)CS)C(N)=O` was 3.29; that for `NC(=O)C[C@H](NC(=O)CS)C(=O)N[C@@H](Cc1c[nH]c2ccccc12)C(N)=O` was 4.15; that for `NCCCC[C@H](NC(=O)[C@H](CS)NC(=O)CS)C(N)=O` was 3.56.
Still for that read-out and setting: the value for `NCCCC[C@H](NC(=O)[C@@H]1CCCN1C(=O)CS)C(N)=O` was 3.12; that for `CSCC[C@H](NC(=O)CS)C(=O)N[C@H](C(N)=O)C(C)C` was 4.01.
